From patent US20230167064A1, “TREATMENTS OF INFLAMMATORY BOWEL DISEASE” (Aqilion AB, priority 2020, published 2023)
Entries after “also recorded” stand apart in the source; their conditions may differ.

What was measured:
Crohn's Disease = settings: reported in D'Haens et al. 2015 and WO 2011/014255; cited from earlier work
[1] = In vivo pharmacokinetic study in rats; design: species or system Sprague Dawley rats; settings: 1 mg/kg oral, rat plasma
Method: An in vivo pharmacokinetic study in rats was performed to determine if Example compound 2 can be absorbed and detected systemically after oral dosing. 4 male Sprague Dawley rats, approximately 225 g-250 g at dosing were dosed with 1 mg/kg of Example compound 2 formulated as a 0.1 mg/mL suspension with sodium carboxymethyl cellulose (1%, w/v). Blood samples were taken at 15 min, 30 min, 1 h, 2 h, 4 h, 6 h, 8 h and 24 h post dose At each blood sampling approximately 250 μL blood was sampled in K3EDTA vials and approximately 100 μL plasma was also prepared. The plasma samples were prepared by mixing 50 μL plasma with 250 μL of internal standard solution (20 ng/mL of phenacetin in ACN with 1% formic acid), mixed and centrifuged (20 min, 4000 rpm). Plasma samples were transferred to Waters Ostro 96-well plate and drawn through the plate by applying 6-8 psi positive pressure for 10 min. 100 μL of supernatant was further diluted with 50 μL UP water and sample was submitted to analysis. The standard and QC samples were prepared into blank rat colon homogenate and blank rat plasma. Standards were spiked into concentrations 0.1-10000 ng/mL of the analytes, QC samples into 3, 30, 300 and 3000 ng/mL, and were otherwise treated as samples.

[2] = tested on: aryl hydrocarbon receptor (AhR); assay: Activation of AhR in colon of mice after oral dosing (qPCR of CYP1A1); assay type: in vivo, C57Bl/6 mice; settings: for Colon CYP1A1 (fold change over untreated) Mean / Liver CYP1A1 (fold change over untreated) Mean: day 14; for Colon CYP1A1 (fold change over untreated) Mean: qPCR normalized to GAPDH & ACTB
Method: The potential of Example compound 2 to activate the aryl hydrocarbon receptor (AhR) in the colon following oral administration was evaluated in a wild-type (WT) mice.
Species/Strain or Breed: C57Bl/6
On study day 0, animals were weighed and evenly distributed into treatment groups based on body weight. On study day 14, animals were asphyxiated via CO2 inhalation followed by cervical dislocation. The entire colon was removed, collected and prepared for qPCR analysis of CYP1A1 (Normalized to GAPDH & ACTB).
The Example compound 2 was formulated as a 0.1 mg/ml, 0.01 mg/ml or 0.001 mg/ml suspension with sodium carboxymethyl cellulose (1%, w/v).

[3] = tested on: CD4+ adoptive transfer induced inflammatory bowel disease in mice; assay: CD4+ adoptive transfer induced inflammatory bowel disease in mice; assay type: in vivo, Fox Chase C.B-17 SCID mice; settings: 1 mg/kg daily, day 21 to 49; for inhibition of inflammation/edema associated with inflammatory bowel disease (anti-inflammatory effect in colon): Potassium Salt
Method: The efficacy of Example compound 2 in inhibiting inflammation/edema associated with inflammatory bowel disease was evaluated in a CD4+ adoptive transfer induced inflammatory bowel disease in mice.
Species/Strain or Breed: Fox Chase C.B-17 SCID & Balb/C
On study day −1, SCID mice were weighed and evenly distributed into treatment groups based on body weight.
On study day 0, Balb/C mice were terminated, and spleens obtained for CD4^+CD45RB^high cell isolation (Using SCID IBD Cell Separation Protocol). After cells were sorted and obtained, each animal in the treatment groups received an IP injection of CD4^+CD45RB^high cells at a minimum 4×10^5 cells (200 μl/mouse injections). A naïve group of mice was followed through the experiment without receiving the injection of cells. The naïve group comprised 5 animals.
On study day 21, treatment with Example compound 2 (1 mg/kg, daily day 21 to 49) was initiated. The compound was formulated as a 0.1 mg/mL suspension with sodium carboxymethyl cellulose (1%, w/v). Mice received either Example compound 2 or vehicle. Each of those groups comprised 10 animals.
On study day 49, animals were anesthetized with Isoflurane and bled to exsanguination followed by cervical dislocation. The entire colon was removed, measured, and weighed. The colon was analysed for its level of interferon-γ and IL-22. The inflammation in the colons was also scored by visual and histopathological assessments.

[4] = tested on: DSS model of Ulcerative Colitis using C57Bl/6 mice; assay: DSS model of Ulcerative Colitis in mice; assay type: in vivo; settings: 1 mg/kg daily oral, vs vehicle (and anti-TNFα antibody); for colitis clinical score: suspension in CMC-Na 2%, Day 9; for colon length: Day 10, experiment termination
Method: Ulcerative Colitis was modelled in C57Bl/6 mice by administering Dextran Sulphate Sodium (DSS) in drinking water (1.5% w/v) for 5 days. Mice were monitored daily for weight loss and clinical symptoms of disease for 10 days starting at the beginning of DSS administration.
The length and weight of the colon were also assessed.
Compared to naïve animals, animals given DSS water developed clinical signs of disease including weight loss and diarrhoea as well as gross pathological signs of disease on experiment termination. […] Shortened length and increased weight:length ratio indicates edema associated with ulcerative colitis.

CCN(C(=O)c1c(O)c2c(Cl)cccc2n(C)c1=O)c1ccccc1 [laquinimod]
benefit in treatment of Crohn's Disease (Crohn's Disease): beneficial for the treatment of Crohn's Disease

Cn1c(=O)c(C(=O)Nc2ccccc2)c(O)c2c(Cl)cccc21.[K] [Example compound 2, 5-chloro-4-hydroxy-1-methyl-2-oxo-N-phenyl-quinoline-3-carboxamide Potassium Salt]
clearance from plasma [1]: rapidly cleared
level in the plasma after oral dosing ([1]; 15 min to 24 h post dose): detected in the plasma
Colon CYP1A1 (fold change over untreated) Mean ([2]; 0.01 mg/kg PO QD D0-13): 1.03 fold change over untreated
Liver CYP1A1 (fold change over untreated) Mean ([2]; 0.01 mg/kg PO QD D0-13): 1.08 fold change over untreated
Colon CYP1A1 (fold change over untreated) Mean ([2]; 0.1 mg/kg PO QD D0-13): 7.42 fold change over untreated
Liver CYP1A1 (fold change over untreated) Mean ([2]; 0.1 mg/kg PO QD D0-13): 2.81 fold change over untreated
Colon CYP1A1 (fold change over untreated) Mean ([2]; 1.0 mg/kg PO QD D0-13): 8.34 fold change over untreated
Liver CYP1A1 (fold change over untreated) Mean ([2]; 1.0 mg/kg PO QD D0-13): 3.44 fold change over untreated
CYP1A1 mRNA expression compared to untreated animals (AhR activation) ([2]; 1.0 and 0.1 mg/kg oral, WT mice): significant increase in CYP1A1 mRNA expression
AhR activating effect, colon versus liver CYP1A1 increase ([2]; oral, increase in liver CYP1A1 lower than in colon): local AhR activating effect
inhibition of inflammation/edema associated with inflammatory bowel disease (anti-inflammatory effect in colon) [3]: local anti-inflammatory effect in the colon
colon level of inflammatory markers (interferon-γ and IL-22) ([3]; colon at day 49, vs vehicle): lower levels of inflammatory markers
inflammation in the colons scored by visual and histopathological assessments ([3]; day 49, vs vehicle): fewer signs of inflammation
inhibition of inflammation/edema associated with inflammatory bowel disease (anti-inflammatory effect in colon) ([3]; listed as potassium salt of DELAQ): effective in inhibiting inflammation/edema
body weight (weight loss) ([3]; vs vehicle): less weight loss

Cn1c(=O)c(C(=O)Nc2ccccc2)c(O)c2c(Cl)cccc21 [Example compound 1, 5-chloro-4-hydroxy-1-methyl-2-oxo-N-phenyl-quinoline-3-carboxamide]
colitis clinical score [4]: significant reduction in colitis clinical score; also recorded: lower colitis score
colitis clinical score ([4]; listed as DELAQ): protective effect against the development of the clinical symptoms of Ulcerative Colitis
colon length [4]: significant increase in colon length; also recorded: greater colon length
colon length ([4]; listed as DELAQ): effective at reducing colon shortening
body weight change (% change from day 1 of experiment), weight loss [4]: reduced weight loss
